Consider one molecule from patent US12661355B2, “Compounds and methods for inducing UCP1 expression” (The Regents of the University of California, priority 2020, dated 2026).

One assay relates to PKA. The experiment in a line: PKA activity ELISA, cell or tissue lysates treated 30 min. As to conditions: 30 min; for PKA activity: brown adipocyte lysate. Format: biochemical, mouse. How it is done: PKA kinase activity was measured with an ELISA that utilized a synthetic peptide as substrate for PKA and a polyclonal antibody that recognizes the phosphorylated form of the substrate (ab139435, Abcam). PKA activity was measured in lysates from cultured brown adipocytes, mouse BAT, or liver. Cells and tissues were lysed in 20 mM MOPS, 5 mM EGTA, 2 mM EDTA, and 0.1% Triton X-100 supplemented with protease and phosphatase inhibitor as described above. Protein concentration was determined by Bradford assay and 10 μg of cells, 0.25 μg of BAT extract, or 0.5 μg of liver extract were assessed for PKA activation according to the manufacturer's instruction, with minor changes. Briefly, vehicle or Z160 was incubated with brown adipocyte cells overnight or with protein lysates for 30 min, followed by one wash before the primary antibody, 60 min incubation with the primary antibody, 30 min incubation with the secondary antibody, and by 10 min washing. Absorbance was measured after the substrate was added for 20-60 min, depending the intensity of the signal.

The target in a further assay is T1, AKAP1 (Rattus norvegicus, UniProt O88884).
T1 construct: DARTS assay in H9c2 cell extracts treated with vehicle or 20 μM Z160 for 1 h; endogenous in cells; host or cells: rat H9c2 cells
The experiment in a line: DARTS in H9c2 cell extracts, AKAP1. Format: binding. As to conditions: 20 μM, 1 h. The procedure:
Rat H9c2 cells were grown in DMEM supplemented with 10% FBS, 25 mM glucose, 1 mM pyruvate, and 2 mM glutamine Neonatal rat ventricular myocytes (NRVM) were isolated and cultured as previously described. Briefly, 2-4 day old rats were sacrificed and myocytes and fibroblasts were isolated and separated using a Percoll density gradient. Following isolation, NRVMs were plated on gelatin-coated plates in DMEM containing 10% FBS, 25 mM glucose, 1 mM pyruvate, and 2 mM glutamine The next day, FBS was replaced by 1× insulin-transferrin-selenium supplement and the cells were treated with vehicle or 10 μM Z160 for 2 days, with or without 60 μM isoproterenol or 50 μM phenylephrine.
[…] assays were performed according to known methods. Briefly, BAT or cells within a 10 cm dish were lysed with 600 μl M-PER buffer containing protease and phosphatase inhibitors. Debris was pelleted by centrifugation at 18,000 g for 10 min at 4° C., and the lysates were harvested and supplemented with TNC buffer (50 mM Tris-HCl, 50 mM NaCl, 10 mM CaCl2). The lysates were split into two tubes and treated with either vehicle or 20 μM Z160 for 1 h at room temperature. For experiment with BAT, 100 μg of lysate was incubated with different Z160 concentrations. […]

The subject of the next assay is UCP1. The experiment in a line: Gene expression in immortalized human brown adipocytes. The format is cell-based. As to conditions: 10 μM for 4 days. The procedure:
Human immortalized brown and white preadipocytes were obtained from Dr. Yu-Hua Tseng (Joslin Diabetes Center, Harvard Medical School, USA). The generation of the two cell lines from human neck adipose tissue biopsies and immortalization was performed as previously described but from a different donor. Cells were cultured in high glucose DMEM supplemented with 10% FBS and antibiotics. Two days after reaching confluence, cells were treated with 30 μM biotin, 500 nM insulin, 17 μM pantothenate, 100 nM dexamethasone, 2 nM 3,3′,5-Triiodo-L-thyronine, 500 μM IBMX, 30 μM indomethacin and 1 μM rosiglitazone, for 12 days. Afterwards, cells were treated with 30 μM biotin, 500 nM insulin, 17 μM pantothenate and 2 nM 3,3′,5-Triiodo-L-thyronine (Maintenance media) for 2 days with end-point assays performed on day 18, and for 5 days with end-point assays performed on day 21, for the brown and white adipocytes cells, respectively.
Mouse RNA levels were measured by qPCR according to known methods. Data were normalized to B2m and Tbp reference genes. Human RNA was extracted using an RNA Mini Plus kit (Zymo) and gene expression determined by Taqman assay. The 1-step qPCR was run on a QuantStudio 12K Flex Real Time PCR System (ThermoFisher) using the following protocol: 50° C. for 5 minutes, 95° C. for 20 seconds, 40 cycles of 95° C. for 15 seconds and 60° C. for 60 seconds. […]

T1 sequence (O88884 30-854): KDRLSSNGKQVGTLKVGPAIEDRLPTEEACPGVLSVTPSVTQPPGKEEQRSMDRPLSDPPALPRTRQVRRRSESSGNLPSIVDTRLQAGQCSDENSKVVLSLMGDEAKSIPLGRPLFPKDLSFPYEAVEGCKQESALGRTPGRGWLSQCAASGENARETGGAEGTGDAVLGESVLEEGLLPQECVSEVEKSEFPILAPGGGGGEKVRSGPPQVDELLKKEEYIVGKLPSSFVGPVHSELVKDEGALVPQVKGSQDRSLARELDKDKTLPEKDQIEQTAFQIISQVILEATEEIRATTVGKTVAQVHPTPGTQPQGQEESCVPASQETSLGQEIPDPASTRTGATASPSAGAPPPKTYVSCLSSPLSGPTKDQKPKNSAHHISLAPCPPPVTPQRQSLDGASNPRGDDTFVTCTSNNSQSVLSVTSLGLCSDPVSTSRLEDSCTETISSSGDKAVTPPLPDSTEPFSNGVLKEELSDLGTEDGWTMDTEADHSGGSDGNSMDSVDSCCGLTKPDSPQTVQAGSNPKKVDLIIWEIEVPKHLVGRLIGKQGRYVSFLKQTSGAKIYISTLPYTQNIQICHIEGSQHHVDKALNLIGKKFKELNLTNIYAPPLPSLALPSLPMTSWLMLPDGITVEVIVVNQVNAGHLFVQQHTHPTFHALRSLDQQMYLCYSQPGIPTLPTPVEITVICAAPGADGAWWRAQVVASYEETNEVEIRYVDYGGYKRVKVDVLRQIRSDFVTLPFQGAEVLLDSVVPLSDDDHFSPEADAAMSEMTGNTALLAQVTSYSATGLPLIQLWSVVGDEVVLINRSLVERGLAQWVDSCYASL

On to `COc1ccc(NC(=O)CSc2nc3ccccc3c(=O)[nH]2)c(OC)c1` [Z160], for which the PKA activity result with PKA (25 μM) and in the assay on PKA (50 μM) was “significant increase” in each case. Moreover, the PKA activation entry is “stimulated PKA activation” in the assay with PKA (mouse BAT extract, 25 μM) and “stimulated PKA activation” in the assay on PKA (mouse liver extract, 25 μM). The “pronase susceptibility of AKAP1” value on AKAP1 is on record as “not”. Also, in the assay with UCP1, the CIDEA expression entry is “increased expression”. In addition, the UCP1 expression in the assay on UCP1 was about 7 fold.
